Results from patent US11253516B2, “N2,N4-diphenylpyrimidine-2,4-diamine derivative, method for preparing same, and pharmaceutical composition containing same as active ingredient for prevention or treatment of cancer” (Korea Research Institute of Chemical Technology, priority 2017, dated 2022).
Like-named read-outs stand apart in the source and are kept apart here.

Tests used:
[1] = molecular target: FLT3(R834Q) (Homo sapiens (Human), UniProt P36888, R834Q); assay: KINOMEscan binding, FLT3(R834Q)
Description: (§1) The inhibitory activity on FLT kinase, such as wild-type FLT1, FLT3, FLT4, and FLT3 mutation forms, FLT3(D835H), FLT3(D835V), FLT3(D835Y), FLT3(ITD), FLT3(ITD,D835V), FLT3(ITD,F691L), FLT3(K663Q), FLT3(N841I), FLT3(R834Q) was measured.
(§2) FLT3 kinase inhibition was carried out by KINOMEscan method (DiscoverX Inc.). KINOMEscan method consists of the following processes. T7 bacteriophage labeled with FLT kinase was cultured by the infection to E. coli derived from BL21. After the infection of E. coli in the condition of 0.4 of MOI (multiplicity of infection), it was cultured for 90 to 150 minutes at 32° C. to lyse E. coli. The cell debris was removed by centrifugation and filtration, and the kinase protein present in the supernatant was secured. Additionally, the kinase protein was labeled with DNA for the qPCR measurement. The magnetic beads labeled with streptavidin were treated with the standard compound labeled with biotin and reacted for 30 minutes. The resulting beads were used as affinity beads for the measurement of a kinase activity. The binding reaction was initiated with mixing a kinase protein, the affinity beads bound with a ligand, and the compound. In this case, the used buffer solution was 20% SeaBlock, 0.17×PBS, 0.05% Tween 20, 6 mM DTT. […] The affinity of the compound to be tested was indirectly measured by Quantifying the eluted kinase by […].

[2] = test system: Ba/F3 EGFR del19/T790M cell line; assay: CellTiter-Glo cell viability, Ba/F3 EGFR del19/T790M; type: cell-based; settings: read-out: Ba/F3 EGFR del19/T790M IC50
Description: (§3) The measurement of an activity on wild-type and mutation Ba/F3 EGFR cell line of the compound of the present invention was experimented by utilizing the CellTiter-Glo system sold by Promega, as follow. The CellTiter-Glo assay is a method for measuring the ATP present in cells in cell culture conditions to determine the cell viability.
(§4) The analysis of an EGFR inhibitory ability effect of the compound was carried out in accordance with the analysis reaction recipe below.
(§5) After the reaction of 72 hours, the plate treated with the compound was allowed to stand for 30 minutes at ambient temperature, and then, was further treated with 100 μl of the reagent, and was shaked for 10 minutes at ambient temperature.

[3] = molecular target: FLT3(ITD) (Homo sapiens, UniProt P36888, ITD); assay: KINOMEscan binding, FLT3(ITD)
Description: as §1, §2

[4] = molecular target: FLT3 (Homo sapiens (Human), UniProt P36888); assay: KINOMEscan binding, FLT3; settings: for inhibitory ability on FLT 3 kinase in comparison with FLT 1 and FLT 4: selectivity in words
Description: as §1
FLT3 kinase inhibition was carried out by KINOMEscan method (DiscoverX Inc.). KINOMEscan method consists of the following processes. T7 bacteriophage labeled with FLT kinase was cultured by the infection to E. coli derived from BL21. After the infection of E. coli in the condition of 0.4 of MOI (multiplicity of infection), it was cultured for 90 to 150 minutes at 32° C. to lyse E. coli. The cell debris was removed by centrifugation and filtration, and the kinase protein present in the supernatant was secured. Additionally, the kinase protein was labeled with DNA for the qPCR measurement. The magnetic beads labeled with streptavidin were treated with the standard compound labeled with biotin and reacted for 30 minutes. The resulting beads were used as affinity beads for the measurement of a kinase activity. The binding reaction was initiated with mixing a kinase protein, the affinity beads bound with a ligand, and the compound. In this case, the used buffer solution was 20% SeaBlock, 0.17×PBS, 0.05% Tween 20, 6 mM DTT. All the reactions were carried out in volume of 20 ul at a 384 well plate. After the reaction for 1 hour at ambient temperature, the beads were washed with the solution consisting of 1×PBS, 0.05 Tween 20. Finally, the kinase bound with the beads was eluted by using 1×PBS, 0.05 Tween 20, 0.5 uM standard compound unlabeled with biotin. The affinity of the compound to be tested was indirectly measured by Quantifying the eluted kinase by […].

[5] = molecular target: EGFR wt. (Homo sapiens (Human), UniProt P00533); assay: HTRF enzyme assay, wild-type EGFR; type: biochemical; settings: recombinant enzyme
Description: (§6) The measurement of an activity on wild-type and EGFR mutation enzyme of the compound of the present invention was experimented by utilizing the HTRF system sold by Cisbio, as follow.
(§7) The composition of the assay buffer used in the activity measurement was 50 mM Tris-HCl pH 7.5, 100 mM NaCl, 7.5 mM MgCl2, 3 mM KCl, 0.01% Tween 20, 0.1% BSA, 1 mM DTT. The enzymatic reaction was carried out hereto by using the peptide substrate labeled with ATP of […] concentration and biotin of […] concentration. The analysis of an EGFR activity inhibitory effect of the compound was carried out in accordance with the analysis reaction recipe below.
(§8) Component 1: […] of EGFR wild-type or mutation enzyme
(§9) Component 2: […] of compound solution
(§10) Component 3: […] of peptide labeled with ATP and biotin
(§11) The enzymatic reaction was initiated by mixing Component 1 and Component 2 first, and then, adding component 3. After the reaction for 2 hours at 37° C., […] of a measurement solution consisting of streptavidin-XL665 provided by Cisbio and anti-phosphotyrosine antibody labeled with europium was added to the enzymatic reaction solution and reacted for 1 hour at ambient temperature. […] The measurement values measured at the seven concentrations of the compound were analyzed by using the Prism program (version 5.01, Graphpad Software, Inc.), and IC50 value of the compound was calculated, which is an inhibitory ability indicator.

[6] = molecular target: EGFR del19/T790M/C797S (Homo sapiens, UniProt P00533, C797S/DEL746-750/T790M); assay: HTRF enzyme assay, EGFR del19/T790M/C797S; type: biochemical
Description: as §6, §7, §8, §9, §10, §11

[7] = molecular target: FLT1 (Homo sapiens (Human), UniProt P17948); assay: KINOMEscan binding, FLT1
Description: as §1, §2

[8] = test system: Ba/F3 EGFR del19/T790M/C797S cell line; assay: CellTiter-Glo cell viability, Ba/F3 EGFR del19/T790M/C797S; type: cell-based; settings: read-out: Ba/F3 EGFR del19/T790M/C797S IC50
Description: as §3, §4, §5

[9] = molecular target: FLT3(D835V) (Homo sapiens (Human), UniProt P36888, D835V); assay: KINOMEscan binding, FLT3(D835V)
Description: as §1, §2

[10] = test system: pERK, pAKT, pS6 (EGFR sub-signal) in Ba/F3 Del19/T790M/C797S cell line; assay: EGFR sub-signal activity (pERK, pAKT, pS6) alone or in combination with cetuximab; type: cell-based; settings: for activity in pERK, pAKT, pS6 (EGFR sub-signal) when administered alone: 30, 100, 300, 1000 nM alone; for sub-signal activity when administered in combination with cetuximab: 30, 100, 300, 1000 nM plus 10 μg cetuximab; for sub-signal activity compared with brigatinib in combination with cetuximab: vs brigatinib plus cetuximab
Description: In addition, when administering each of brigatinib, the compounds of Examples 10 and 11 of the present invention in 30, 100, 300, 1000 nM alone or in combination with 10 μg of cetuximab, the sub-signal activity on a/F3 Del19/T790M/C797S cell line was evaluated and the results are shown in FIGS. 5 to 7.

[11] = molecular target: FLT3(N841I) (Homo sapiens (Human), UniProt P36888, N841I); assay: KINOMEscan binding, FLT3(N841I)
Description: as §1, §2

[12] = test system: Ba/F3 EGFR del19 cell line; assay: CellTiter-Glo cell viability, Ba/F3 EGFR del19; type: cell-based; settings: 72 hours
Description: as §3, §4
After the reaction of 72 hours, the plate treated with the compound was allowed to stand for 30 minutes at ambient temperature, and then, was further treated with 100 μl of the reagent, and was shaked for 10 minutes at ambient temperature. […] The measurement values measured at the eight concentrations of the compound were analyzed by using the Prism program (version 5.01, Graphpad Software, Inc.), and IC50 value of the compound was calculated, which is an inhibitory ability indicator.

[13] = molecular target: FLT3(ITD, D835V) (Homo sapiens, UniProt P36888, D835V/ITD); assay: KINOMEscan binding, FLT3(ITD, D835V)
Description: as §1, §2

EGFR del19/T790M/C797S, sequence (P00533 with tags, fused parts or gaps C797S/DEL746-750/T790M limits assumed): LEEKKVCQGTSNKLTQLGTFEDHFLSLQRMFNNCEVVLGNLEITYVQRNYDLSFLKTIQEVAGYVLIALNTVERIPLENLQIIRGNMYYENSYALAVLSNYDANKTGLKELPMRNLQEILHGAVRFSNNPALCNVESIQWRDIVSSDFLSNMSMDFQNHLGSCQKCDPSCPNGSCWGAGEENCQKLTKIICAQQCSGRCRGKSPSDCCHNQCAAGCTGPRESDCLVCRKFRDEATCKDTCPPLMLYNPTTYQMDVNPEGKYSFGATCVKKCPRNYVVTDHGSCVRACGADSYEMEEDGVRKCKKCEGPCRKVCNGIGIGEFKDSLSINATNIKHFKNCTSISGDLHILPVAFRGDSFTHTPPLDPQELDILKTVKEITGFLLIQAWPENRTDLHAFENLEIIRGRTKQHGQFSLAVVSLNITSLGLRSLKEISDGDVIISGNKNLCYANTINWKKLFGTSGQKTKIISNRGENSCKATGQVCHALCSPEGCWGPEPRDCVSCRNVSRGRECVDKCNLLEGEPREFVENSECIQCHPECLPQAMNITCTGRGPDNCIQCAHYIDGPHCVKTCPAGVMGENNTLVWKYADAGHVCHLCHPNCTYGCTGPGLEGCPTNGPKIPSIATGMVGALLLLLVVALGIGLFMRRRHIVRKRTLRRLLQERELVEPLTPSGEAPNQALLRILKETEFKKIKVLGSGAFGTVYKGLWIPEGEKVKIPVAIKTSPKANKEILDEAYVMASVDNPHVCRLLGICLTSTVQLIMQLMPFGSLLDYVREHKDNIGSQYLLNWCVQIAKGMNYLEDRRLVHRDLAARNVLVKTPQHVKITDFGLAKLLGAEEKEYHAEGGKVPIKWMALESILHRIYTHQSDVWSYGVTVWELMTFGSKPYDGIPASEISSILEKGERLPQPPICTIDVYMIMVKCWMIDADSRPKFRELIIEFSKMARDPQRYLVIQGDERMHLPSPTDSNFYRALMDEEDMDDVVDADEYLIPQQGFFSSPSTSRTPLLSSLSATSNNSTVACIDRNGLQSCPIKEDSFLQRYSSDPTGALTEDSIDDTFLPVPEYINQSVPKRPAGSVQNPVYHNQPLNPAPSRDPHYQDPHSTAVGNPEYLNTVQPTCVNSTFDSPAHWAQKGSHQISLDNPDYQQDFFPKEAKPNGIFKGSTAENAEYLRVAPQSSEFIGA
EGFR wt., sequence (P00533 25-1210): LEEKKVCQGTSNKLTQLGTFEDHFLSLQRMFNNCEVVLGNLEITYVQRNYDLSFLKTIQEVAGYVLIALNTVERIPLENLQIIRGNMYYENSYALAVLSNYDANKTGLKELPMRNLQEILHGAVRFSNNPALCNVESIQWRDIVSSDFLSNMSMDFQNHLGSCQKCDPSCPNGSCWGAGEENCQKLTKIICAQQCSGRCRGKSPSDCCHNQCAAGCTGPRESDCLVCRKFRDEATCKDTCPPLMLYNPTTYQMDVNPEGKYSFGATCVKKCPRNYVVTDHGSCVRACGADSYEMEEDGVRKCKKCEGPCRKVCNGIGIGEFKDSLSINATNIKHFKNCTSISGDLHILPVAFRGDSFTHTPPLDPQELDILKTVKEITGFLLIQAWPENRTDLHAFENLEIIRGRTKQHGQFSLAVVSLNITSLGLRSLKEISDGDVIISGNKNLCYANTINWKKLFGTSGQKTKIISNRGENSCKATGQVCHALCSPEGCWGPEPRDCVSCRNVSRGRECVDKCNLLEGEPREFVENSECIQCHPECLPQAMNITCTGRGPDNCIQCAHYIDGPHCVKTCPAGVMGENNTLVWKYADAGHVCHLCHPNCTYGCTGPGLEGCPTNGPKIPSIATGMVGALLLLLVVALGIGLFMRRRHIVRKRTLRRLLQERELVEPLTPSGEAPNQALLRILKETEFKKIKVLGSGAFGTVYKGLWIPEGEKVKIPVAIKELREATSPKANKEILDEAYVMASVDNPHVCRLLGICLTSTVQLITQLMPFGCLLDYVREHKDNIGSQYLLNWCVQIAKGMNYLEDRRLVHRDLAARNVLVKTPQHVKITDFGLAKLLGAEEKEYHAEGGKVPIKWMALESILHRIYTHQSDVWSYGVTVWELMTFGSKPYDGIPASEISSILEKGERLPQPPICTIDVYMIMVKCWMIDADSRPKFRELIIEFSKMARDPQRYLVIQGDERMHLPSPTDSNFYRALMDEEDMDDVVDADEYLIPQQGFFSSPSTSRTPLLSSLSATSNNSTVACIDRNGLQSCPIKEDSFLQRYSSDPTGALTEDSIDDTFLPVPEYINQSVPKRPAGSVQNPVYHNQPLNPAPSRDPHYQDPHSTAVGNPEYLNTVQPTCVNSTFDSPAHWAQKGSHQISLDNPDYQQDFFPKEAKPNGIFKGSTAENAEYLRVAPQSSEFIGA
FLT1, sequence (P17948 27-1338): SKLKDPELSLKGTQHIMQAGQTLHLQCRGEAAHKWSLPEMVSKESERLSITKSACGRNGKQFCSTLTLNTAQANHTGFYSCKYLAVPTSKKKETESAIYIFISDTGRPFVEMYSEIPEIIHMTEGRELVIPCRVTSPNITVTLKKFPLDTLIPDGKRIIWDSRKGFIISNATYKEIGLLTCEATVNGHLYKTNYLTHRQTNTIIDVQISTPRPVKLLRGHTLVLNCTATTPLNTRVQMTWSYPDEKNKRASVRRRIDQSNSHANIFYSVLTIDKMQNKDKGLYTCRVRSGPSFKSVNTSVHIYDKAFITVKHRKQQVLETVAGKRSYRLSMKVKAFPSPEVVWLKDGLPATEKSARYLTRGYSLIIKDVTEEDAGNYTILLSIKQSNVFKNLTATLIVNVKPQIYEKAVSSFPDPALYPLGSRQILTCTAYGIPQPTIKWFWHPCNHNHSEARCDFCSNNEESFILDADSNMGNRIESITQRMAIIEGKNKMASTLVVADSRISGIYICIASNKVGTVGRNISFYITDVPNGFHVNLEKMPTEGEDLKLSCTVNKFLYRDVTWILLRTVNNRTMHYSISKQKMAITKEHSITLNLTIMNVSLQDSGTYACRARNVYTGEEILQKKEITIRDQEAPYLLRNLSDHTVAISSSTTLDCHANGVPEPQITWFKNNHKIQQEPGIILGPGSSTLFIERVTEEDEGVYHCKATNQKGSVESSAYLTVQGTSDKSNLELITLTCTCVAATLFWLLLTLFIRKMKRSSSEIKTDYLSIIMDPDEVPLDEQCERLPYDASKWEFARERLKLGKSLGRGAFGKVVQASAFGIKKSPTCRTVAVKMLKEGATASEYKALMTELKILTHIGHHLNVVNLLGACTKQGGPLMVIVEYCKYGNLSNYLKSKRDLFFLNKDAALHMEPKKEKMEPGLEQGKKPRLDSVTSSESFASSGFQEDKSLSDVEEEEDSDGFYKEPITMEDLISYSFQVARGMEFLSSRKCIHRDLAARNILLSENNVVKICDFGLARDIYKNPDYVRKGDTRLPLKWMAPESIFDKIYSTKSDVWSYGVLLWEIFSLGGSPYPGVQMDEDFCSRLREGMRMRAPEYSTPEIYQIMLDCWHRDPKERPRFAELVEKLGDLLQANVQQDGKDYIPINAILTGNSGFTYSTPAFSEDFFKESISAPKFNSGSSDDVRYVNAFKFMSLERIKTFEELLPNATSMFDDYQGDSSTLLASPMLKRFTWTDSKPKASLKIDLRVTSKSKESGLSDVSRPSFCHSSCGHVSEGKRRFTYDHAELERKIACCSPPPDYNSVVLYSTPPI

IC50 ([2]; CellTiter-Glo, 72 hours) [nM] | IC50 ([6]; HTRF, recombinant enzyme, read-out: EGFR del19/T790M/C797S IC50) [nM] | IC50 ([8]; CellTiter-Glo, 72 hours) [nM] | Structure (SMILES) | Kd [1] [nM] | IC50 ([2]; 72 h) [nM] | Kd [3] [nM] | Kd [4] [nM] | inhibitory ability on FLT 3 kinase in comparison with FLT 1 and FLT 4 [4] | IC50 [5] [nM] | IC50 [6] [nM] | Kd [7] [nM] | IC50 ([8]; 72 h) [nM] | Kd [9] [nM] | activity in pERK, pAKT, pS6 (EGFR sub-signal) when administered alone [10] | sub-signal activity when administered in combination with cetuximab [10] | sub-signal activity compared with brigatinib in combination with cetuximab [10] | Kd [11] [nM] | IC50 [12] [nM] | Kd [13] [nM]
– | – | – | COc1cc(N2CCC(N3CCN(C)CC3)CC2)ccc1Nc1ncc(Cl)c(Nc2ccccc2NS(C)(=O)=O)n1 [Example 10, N-(2-((5-chloro-2-((2-methoxy-4-(4-(4-methylpiperazin-1-yl)piperidin-1-yl)phenyl)amino)pyrimidin-4-yl)amino)phenyl)methanesulfonamide] | 33 | 99 | 18 | 3.7 | selectively superior inhibitory ability | 430 | 0.2 | > 10000 | 63 | 0.29 | concentration-dependent activity | superior activity | superior activity | 6.5 | 180 | 0.32
31 | 6 | 38 | COc1cc(N2CCC(N(C)C)CC2)ccc1Nc1ncc(Cl)c(Nc2ccccc2NS(C)(=O)=O)n1 [Example 11, N-(2-((5-chloro-2-((4-(4-(dimethylamino)piperidin-1-yl)-2-methoxyphenyl)amino)pyrimidin-4-yl)amino)phenyl)methanesulfonamide] | 19 | – | 4.2 | 1.2 | selectively superior inhibitory ability | 280 | – | 910 | – | 0.082 | concentration-dependent activity | superior activity | superior activity | 3.8 | 4.7 | 0.16
